Measurements from the Kinase Knowledgebase extract (Sharma et al. 2016).

What was measured:
CDK2 = CDK2 (UniProt P24941); assay: Enzyme Assay
CDK2 (human) [1] = target: CDK2 (human) (UniProt P24941); assay: Cell-Based Assay
CDK2 (human) [2] = target: CDK2 (human) (UniProt P24941); assay: Cell-Based Assay; conditions: hdf
CDK2 (human) [3] = target: CDK2 (human) (UniProt P24941); assay: Cell-Based Assay; conditions: rko

Row | IC50 (CDK2) | IC50 (CDK2 (human) [1]; hdf) | IC50 (CDK2 (human) [1]; hdf-3) | IC50 (CDK2 (human) [1]; mes/sa) | IC50 (CDK2 (human) [1]; rko) | IC50 (CDK2 (human) [2]) | IC50 (CDK2 (human) [3]) | IC50 (CDK2 (human) [1]; mda-mb-468) | Compound
1 | 0.051 to 0.1 µM | 0.6 to 1 µM | 1.1 to 5 µM | > 5 µM | 0.1 to 0.5 µM | > 5 µM | 0.1 to 0.5 µM |  | CNS(=O)(=O)Cc1ccc(NN=C2C(=O)Nc3cc(C)c(O)c(C)c32)cc1
2 | 0.011 to 0.05 µM | > 5 µM | > 5 µM |  |  | > 5 µM | > 5 µM | 1.1 to 5 µM | O=C1Nc2ccc3ncsc3c2/C1=C/Nc1ccc2nn[nH]c2c1
3 | 0.001 to 0.01 µM | > 5 µM | 1.1 to 5 µM |  | > 5 µM | > 5 µM | 1.1 to 5 µM |  | CNS(=O)(=O)Cc1ccc(NN=C2C(=O)Nc3ccc4ncccc4c32)cc1
4 | 0.001 to 0.01 µM |  | > 5 µM | > 5 µM | 1.1 to 5 µM | > 5 µM | 1.1 to 5 µM | > 5 µM | CN(C)S(=O)(=O)c1ccc(N/C=C2\C(=O)Nc3ccc(-c4cnco4)cc32)cc1
5 | 0.001 to 0.01 µM | 1.1 to 5 µM | 0.6 to 1 µM | 0.1 to 0.5 µM | 0.6 to 1 µM | > 5 µM | 0.6 to 1 µM | 0.6 to 1 µM | NS(=O)(=O)c1ccc(NN=C2C(=O)Nc3ccc(-c4cnco4)cc32)cc1
6 | 0.011 to 0.05 µM | > 5 µM | 1.1 to 5 µM | 1.1 to 5 µM | > 5 µM | > 5 µM | 1.1 to 5 µM |  | CS(=O)(=O)Cc1ccc(N/C=C2\C(=O)Nc3ccc4ncsc4c32)cc1
7 | 0.001 to 0.01 µM |  | 1.1 to 5 µM |  |  | > 5 µM | 1.1 to 5 µM |  | CCC(C)Cc1cccc2c1C(=NNc1ccc(S(N)(=O)=O)cc1)C(=O)N2 (stereo not given)
